Source: patent US20240226130A1, “4'-THIONUCLEOSIDE ANALOGUES AND THEIR PHARMACEUTICAL USE” (Gilead Sciences, Inc., priority 2022, published 2024)
Like-named read-outs stand apart in the source and are kept apart here.

What was measured:
[1] = tested on: HIV-1 (IIIB); experiment: Antiviral (HIV) assay in MT-4 cells; type: cell-based; details: read-out: MT4 HIV EC50
Description: Example 9: Antiviral (HIV) Assay in MT-4 Cells
Compounds were tested in a high-throughput 384-well assay format for their ability to inhibit the replication of HIV-1 (IIIB) in MT-4 cells. Compounds were serially diluted (1:3) in DMSO on 384-well polypropylene plates and further diluted 200-fold into complete RPMI media (10% FBS, 1% P/S) using the Biotek Micro Flow and Labcyte ECHO acoustic dispenser. Each plate contained up to 8 test compounds, with negative (no drug) and positive (5 μM AZT) controls. MT-4 cells were pre-treated with 10 μL of either RPMI (mock-infected) or a fresh 1:250 dilution of HIV-1 IIIB concentrated virus stock. Infected and uninfected MT-4 cells were further diluted in complete RPMI media and added to each plate using a Micro Flow dispenser. After 5 days incubation in a humidified and temperature-controlled incubator (37° C.), Cell Titer Glo (Promega) was added to the assay plates and chemiluminescence read using an Envision plate-reader. EC50 values were defined as the compound concentration that causes a 50% decrease in luminescence signal and were calculated using a sigmoidal dose-response model to generate curve fits and are shown in Table 1.

[2] = Cytotoxicity assay in MT-4 cells; type: cell-based; details: human, uninfected MT-4 cells, read-out: MT4 CC50
Description: Example 10: Cytotoxicity Assay in MT-4 Cells
Assays were performed as described in Example 9 except uninfected MT-4 cells were added to each well containing test compound. In addition, 10 μM puromycin was added to the last column of each assay plate to assess a base level of cytotoxicity.

[3] = Rhesus pharmacokinetic study, intravenous compound 7 (plasma and PBMC); details: for Intracellular concentration in PBMC: LOQ 2.5 μM compound 7, 0.63 μM triphosphate
Description: Male Indian Origin Rhesus Monkeys were used for the pharmacokinetic studies. Studies were conducted under a protocol approved by IACUC. […] The intravenous dose was administered as an approximately 30-minute infusion, and after dose administration the dose apparatus was flushed with approximately 1 mL saline before removal from the animal. Food was returned 4 hours after dosing. […] The K2EDTA tubes were kept chilled at approximately 5° C. until centrifugation (4° C., 5 minutes, 2000×g) to collect plasma. Centrifugation began within 1 hour of collection. Plasma samples were harvested, placed in micronic tubes, and maintained on dry ice prior to storage at −70° C. until analysis by LC-MS/MS. […] The sodium citrate tubes were then gently inverted 3-4 times and stored upright at ambient temperature until centrifugation to collect PBMCs. Centrifugation began as soon as possible following collection, within 6 hours after collection. The PBMCs were separated by centrifugation (30 minutes at 1500×g-1800×g, 18-20° C.), washed once with ice cold 0.9% NaCl and treated with red blood cell lysis buffer (3.5 g ammonium chloride and 0.036 g ammonium carbonate in 500 mL ultrapure water, prepared before first blood collection) for 10 minutes at ambient temperature. Subsequently the cells were washed twice with ice cold 0.9% NaCl, the cell pellet resuspended in ice cold RIPA buffer (fortified with Pierce protease ad phosphatase inhibitor tablet), snap frozen in liquid nitrogen, and maintained at −70° C. until analysis by LC-MS/MS.

[4] = Rhesus pharmacokinetic study, oral compound 7 (plasma and PBMC); details: for Intracellular concentration in PBMC: LOQ 0.16 μM compound 7, 0.04 μM triphosphate
Description: The oral dose was administered via oral gavage, and after dose administration the dose apparatus was flushed with approximately 10 mL water before removal from the animal. Food was returned 4 hours after dosing. […] The K2EDTA tubes were kept chilled at approximately 5° C. until centrifugation (4° C., 5 minutes, 2000×g) to collect plasma. Centrifugation began within 1 hour of collection. Plasma samples were harvested, placed in micronic tubes, and maintained on dry ice prior to storage at −70° C. until analysis by LC-MS/MS. […] The sodium citrate tubes were then gently inverted 3-4 times and stored upright at ambient temperature until centrifugation to collect PBMCs. Centrifugation began as soon as possible following collection, within 6 hours after collection. The PBMCs were separated by centrifugation (30 minutes at 1500×g-1800×g, 18-20° C.), washed once with ice cold 0.9% NaCl and treated with red blood cell lysis buffer (3.5 g ammonium chloride and 0.036 g ammonium carbonate in 500 mL ultrapure water, prepared before first blood collection) for 10 minutes at ambient temperature. Subsequently, the cells were washed twice with ice cold 0.9% NaCl and the cell pellet maintained at −70° C. until analysis by LC-MS/MS.

[5] = Human immunodeficiency virus 1, MT4, 120 h, HIV-1 IIIB in MT-4 cells, 5 days, Cell Titer Glo
[6] = Human immunodeficiency virus 1, IIIB, MT4, 120 h
[7] = male, Indian Origin, rhesus monkey, plasma, iv, 1 mg/kg
[8] = male, Indian Origin, rhesus monkey, peripheral blood mononuclear cells (PBMC), po, 7.5 mg/kg
[9] = male, Indian Origin, rhesus monkey, plasma, po, 7.5 mg/kg

## C#C[C@]1(CO)S[C@@H](n2cnc3c(N)nc(N)nc32)C[C@@H]1O [Compound 1, (2R,3S,5R)-5-(2,6-Diamino-9H-purin-9-yl)-2-ethynyl-2-(hydroxymethyl)tetrahydrothiophen-3-ol]
[1]; [5]
  EC50: 0.683 µM
[2]
  CC50 at 5 days: > 25 µM

## C#C[C@]1(CO)S[C@@H](n2cnc3c(NC4CC4)nc(N)nc32)C[C@@H]1O [Compound 2, (2R,3S,5R)-5-(2-Amino-6-(cyclopropylamino)-9H-purin-9-yl)-2-ethynyl-2-(hydroxymethyl)tetrahydrothiophen-3-ol]
[1]; [5]
  EC50: 4.52 µM
[2]
  CC50 at 5 days: > 25 µM

## C#C[C@]1(CO)S[C@@H](n2cnc3nc(N)nc(NC4CC4)c32)C[C@@H]1O [Compound 3, (2R,3S,5R)-5-(2-Amino-6-(cyclopropylamino)-7H-purin-7-yl)-2-ethynyl-2-(hydroxymethyl)tetrahydrothiophen-3-ol]
[1]; [5]
  EC50: > 25 µM
[2]
  CC50 at 5 days: > 25 µM

## C#C[C@]1(CO)S[C@@H](n2cnc3c(OCC)nc(N)nc32)C[C@@H]1O [Compound 4, (2R,3S,5R)-5-(2-Amino-6-ethoxy-9H-purin-9-yl)-2-ethynyl-2-(hydroxymethyl)tetrahydrothiophen-3-ol]
[1]; [5]
  EC50: 0.477 µM
[2]
  CC50 at 5 days: 23 µM

## C#C[C@]1(CO)S[C@@H](n2cnc3nc(N)nc(OCC)c32)C[C@@H]1O [Compound 5, (2R,3S,5R)-5-(2-Amino-6-ethoxy-7H-purin-7-yl)-2-ethynyl-2-(hydroxymethyl)tetrahydrothiophen-3-ol]
[1]; [5]
  EC50: > 5 µM
[2]
  CC50 at 5 days: > 25 µM

## C#C[C@]1(CO[P@@](=O)(N[C@@H](C)C(=O)OCC(CC)CC)Oc2ccccc2)S[C@@H](n2cnc3c(N)nc(N)nc32)C[C@@H]1O [Compound 6, 2-Ethylbutyl ((S)-(((2R,3S,5R)-5-(2,6-diamino-9H-purin-9-yl)-2-ethynyl-3-hydroxytetrahydrothiophen-2-yl)methoxy)(phenoxy)phosphoryl)-L-alaninate]
[1]; [6]
  EC50: 0.026 µM
[2]
  CC50 at 5 days: > 25 µM

## C#C[C@]1(CO)S[C@@H](n2cc(F)c(N)nc2=O)C[C@@H]1O [Compound 7, 4-Amino-1-((2R,4S,5R)-5-ethynyl-4-hydroxy-5-(hydroxymethyl)tetrahydrothiophen-2-yl)-5-fluoropyrimidin-2(1H)-one]
[1]; [5]
  EC50: 0.018 µM
[2]
  CC50 at 5 days: 24 µM
[3]; 12 hr after intravenous 1 mg/kg compound 7
  Intracellular concentration in PBMC: BLQ
[3]; 24 hr after intravenous 1 mg/kg compound 7
  Intracellular concentration in PBMC: BLQ
[3]; 48 hr after intravenous 1 mg/kg compound 7
  Intracellular concentration in PBMC: BLQ
[3]; 72 hr after intravenous 1 mg/kg compound 7
  Intracellular concentration in PBMC: BLQ
[3]; 144 hr after intravenous 1 mg/kg compound 7
  Intracellular concentration in PBMC: BLQ
[3]; 168 hr after intravenous 1 mg/kg compound 7
  Intracellular concentration in PBMC: BLQ
[3]; male, Indian Origin, rhesus monkey, in vivo, iv, 1 mg/kg
  half-life: 50 ± 26.4 h
[3]; [7]
  AUC(0-t): 14.6 ± 3.01 µM·h
  Cmax: 3770 ± 310 nM
[4]; 48 hr after oral 7.5 mg/kg compound 7
  Intracellular concentration in PBMC: BLQ
[4]; 72 hr after oral 7.5 mg/kg compound 7
  Intracellular concentration in PBMC: BLQ
[4]; 120 hr after oral 7.5 mg/kg compound 7
  Intracellular concentration in PBMC: BLQ
[4]; 168 hr after oral 7.5 mg/kg compound 7
  Intracellular concentration in PBMC: BLQ
[4]; male, Indian Origin, rhesus monkey, in vivo, po, 7.5 mg/kg
  half-life: 25.1 ± 16.3 h
[4]; [8]
  concentration at 12 h: 560 ± 30 nM
  concentration at 24 h: 370 ± 200 nM
[4]; [9]
  AUC(0-t): 20.1 ± 14.9 µM·h
  Cmax: 1500 ± 350 nM

## C#C[C@]1(CO[P@@](=O)(N[C@@H](C)C(=O)OCC(CC)CC)Oc2ccccc2)S[C@@H](n2cc(F)c(N)nc2=O)C[C@@H]1O [Compound 9, 2-Ethylbutyl ((S)-(((2R,3S,5R)-5-(4-amino-5-fluoro-2-oxopyrimidin-1(2H)-yl)-2-ethynyl-3-hydroxytetrahydrothiophen-2-yl)methoxy)(phenoxy)phosphoryl)-L-alaninate]
[1]; [6]
  EC50: 0.145 µM
[2]
  CC50 at 5 days: 23.2 µM
